Molecular target: coca-5HT3 (α7(L141G,G175K,Y210F,Y217F)–5HT3) (Homo sapiens, UniProt P36544, G175K/L141G/Y210F/Y217F)
Assay: Membrane potential assay, coca-5HT3 in HEK293
Details: for Max normalized Response / Response: coca-5HT3; for Max normalized Response: ED Fig 3b
[1] = membrane potential assay dose response

Chain of coca-5HT3 (α7(L141G,G175K,Y210F,Y217F)–5HT3) (P36544 23-224 L141G/G175K/Y210F/Y217F): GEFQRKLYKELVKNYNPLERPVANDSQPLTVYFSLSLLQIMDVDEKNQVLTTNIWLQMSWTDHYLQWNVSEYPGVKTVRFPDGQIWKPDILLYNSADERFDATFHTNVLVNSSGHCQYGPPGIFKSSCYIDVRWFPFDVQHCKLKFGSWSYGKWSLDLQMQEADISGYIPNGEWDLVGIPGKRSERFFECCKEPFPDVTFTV
Chain of coca-5HT3 (α7(L141G,G175K,Y210F,Y217F)–5HT3) (P23979 242-489, further chain): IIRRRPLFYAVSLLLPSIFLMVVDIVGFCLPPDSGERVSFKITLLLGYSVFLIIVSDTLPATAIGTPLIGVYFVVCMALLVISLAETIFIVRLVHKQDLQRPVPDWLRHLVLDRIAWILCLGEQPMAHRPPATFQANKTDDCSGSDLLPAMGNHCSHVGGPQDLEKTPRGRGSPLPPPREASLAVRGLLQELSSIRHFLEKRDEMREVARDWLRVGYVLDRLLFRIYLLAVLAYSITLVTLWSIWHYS

With C[N+]1(C)[C@@H]2C[C@@H](OC(=O)C(O)(c3cccs3)c3cccs3)C[C@H]1[C@@H]1O[C@@H]12 [Tiotropium] the “Max normalized Response” value (conc 0.137 uM) was 0.05284, the “Max normalized Response” value (conc 3.7 uM) was 0.03225 and the “Max normalized Response” value (conc 11.1 uM) was 0.04379. The “Max normalized Response” value (conc 33.3 uM) was 0.159 and the “Max normalized Response” value (conc 100 uM) was 0.2432.

Work on CN1CC[C@]23c4c5ccc(O)c4O[C@H]2[C@@H](O)C=C[C@H]3[C@H]1C5 [morphine] yielded a Response (conc 0.0137 uM, ED Fig. 2c) of 0.063, a Response (conc 0.123 uM, ED Fig. 2c) of 0.114 and a Response (conc 0.37 uM, ED Fig. 2c) of 0.04. For the same molecule, the Response (conc 10 uM, ED Fig. 2c) was 0.069, the Response (conc 30 uM, ED Fig. 2c) was 0.121 and the “activation of coca-5HT3” value [1] was “did not activate”.

In the case of CNC[C@H](O)c1ccc(O)c(O)c1 [Epinephrine], the Response (conc 0.457247 uM, ED Fig 3a) was 0.136, the Response (conc 1.37174 uM, ED Fig 3a) was 0.141 and the Response (conc 12.3457 uM, ED Fig 3a) was 0.06. For the same molecule, the Response (conc 37.037 uM, ED Fig 3a) was 0.029 and the Response (conc 111.111 uM, ED Fig 3a) was 0.188.

With CCN(CC)CCOC(=O)c1ccc(N)cc1 [Procaine] the “Max normalized Response” value (conc 0.137 uM) was 0.07766, the “Max normalized Response” value (conc 3.7 uM) was 0.1325 and the “Max normalized Response” value (conc 11.1 uM) was 0.1562. For the same molecule, the “Max normalized Response” value (conc 33.3 uM) was 0.143, the “Max normalized Response” value (conc 100 uM) was 0.166 and the “activation of coca-5HT3” value (up to 100 µM) was “did not activate”.

N[C@@H](CCC(=O)O)C(=O)O [Glutmate] showed a Response (conc 0.457247 uM, ED Fig 3a) of 0.109, a Response (conc 1.37174 uM, ED Fig 3a) of 0.069 and a Response (conc 12.3457 uM, ED Fig 3a) of 0. For the same molecule, the Response (conc 37.037 uM, ED Fig 3a) was 0.041, the Response (conc 111.111 uM, ED Fig 3a) was 0.031 and the Response (conc 333.333 uM, ED Fig 3a) was 0.048. For the same molecule, the Response (conc 1000 uM, ED Fig 3a) was 0.028.

For CN1[C@@H]2CC[C@H]1C[C@@H](OC(=O)[C@H](CO)c1ccccc1)C2 [Hyoscyamine], the “Max normalized Response” value (conc 0.137 uM) was 0.1005, the “Max normalized Response” value (conc 3.7 uM) was 0.08466 and the “Max normalized Response” value (conc 11.1 uM) was 0.09524. The “Max normalized Response” value (conc 33.3 uM) was 0.1217 and the “Max normalized Response” value (conc 100 uM) was 0.01058.

In the case of O=C(O[C@H]1C[C@H]2CC[C@@H](C1)[N+]21CCCC1)C(O)(c1ccccc1)c1ccccc1 [Trospium], the “Max normalized Response” value (conc 0.137 uM) was 0.127, the “Max normalized Response” value (conc 3.7 uM) was 0.2063 and the “Max normalized Response” value (conc 11.1 uM) was 0.1005. For the same molecule, the “Max normalized Response” value (conc 33.3 uM) was 0.1217 and the “Max normalized Response” value (conc 100 uM) was 0.03704.

Work on N[C@@H](CC(=O)O)C(=O)O [Aspartate] yielded a Response (conc 0.457247 uM, ED Fig 3a) of 0.065, a Response (conc 1.37174 uM, ED Fig 3a) of 0.034 and a Response (conc 12.3457 uM, ED Fig 3a) of 0.025. For the same molecule, the Response (conc 37.037 uM, ED Fig 3a) was 0.074, the Response (conc 111.111 uM, ED Fig 3a) was 0.072 and the Response (conc 333.333 uM, ED Fig 3a) was 0.088. The Response (conc 1000 uM, ED Fig 3a) was 0.232.

With CCCCC/C=C\C/C=C\C/C=C\C/C=C\CCCC(=O)NCCO [Anandamide] the Response (conc 0.457247 uM, ED Fig 3a) was 0.053, the Response (conc 1.37174 uM, ED Fig 3a) was 0.085 and the Response (conc 12.3457 uM, ED Fig 3a) was 0.046. The Response (conc 37.037 uM, ED Fig 3a) was 0.011, the Response (conc 111.111 uM, ED Fig 3a) was 0.073 and the Response (conc 333.333 uM, ED Fig 3a) was 0.021. The Response (conc 1000 uM, ED Fig 3a) was 0.149.

Molecule CC(N)Cc1ccccc1 (centres unmarked) [amphetamine] has a Response (conc 0.0137 uM, ED Fig. 2c) of 0.05, a Response (conc 0.123 uM, ED Fig. 2c) of 0.058 and a Response (conc 0.37 uM, ED Fig. 2c) of 0.049. For the same molecule, the Response (conc 10 uM, ED Fig. 2c) was 0.028, the Response (conc 30 uM, ED Fig. 2c) was 0.055 and the “activation of coca-5HT3” value [1] was “did not activate”.

For CC[N+]1(C)[C@@H]2CC(OC(=O)[C@H](CO)c3ccccc3)C[C@H]1[C@@H]1O[C@@H]12 (some centres unmarked) [Oxitroprium], the “Max normalized Response” value (conc 0.137 uM) was 0.04923, the “Max normalized Response” value (conc 3.7 uM) was 0.04777 and the “Max normalized Response” value (conc 11.1 uM) was 0.1339. The “Max normalized Response” value (conc 33.3 uM) was 0.03611 and the “Max normalized Response” value (conc 100 uM) was 0.1339.

Molecule N[C@H](CO)C(=O)O [D-serine] has a Response (conc 0.457247 uM, ED Fig 3a) of 0.104, a Response (conc 1.37174 uM, ED Fig 3a) of 0.061 and a Response (conc 12.3457 uM, ED Fig 3a) of 0.037. The Response (conc 37.037 uM, ED Fig 3a) was 0.062, the Response (conc 111.111 uM, ED Fig 3a) was 0.111 and the Response (conc 333.333 uM, ED Fig 3a) was 0.06. For the same molecule, the Response (conc 1000 uM, ED Fig 3a) was 0.145.

In the case of CN1[C@H]2CC[C@@H]1[C@@H](C(=O)O)[C@@H](OC(=O)c1ccccc1)C2 [benzoyl ecgonine], the Response (conc 0.0137174 uM, ED Fig. 2b) was 0.07, the Response (conc 0.123457 uM, ED Fig. 2b) was 0.088 and the Response (conc 0.37037 uM, ED Fig. 2b) was 0.072. For the same molecule, the Response (conc 1.11111 uM, ED Fig. 2b) was 0.062, the Response (conc 3.33333 uM, ED Fig. 2b) was 0.097 and the Response (conc 10 uM, ED Fig. 2b) was 0.074. For the same molecule, the Response (conc 30 uM, ED Fig. 2b) was 0.088 and the “activation of coca-5HT3” value [1] was “not activated”.

Molecule NCCc1c[nH]cn1 [Histamine] has a Response (conc 0.457247 uM, ED Fig 3a) of 0.136, a Response (conc 1.37174 uM, ED Fig 3a) of 0.016 and a Response (conc 12.3457 uM, ED Fig 3a) of 0.035. It also gave a Response (conc 37.037 uM, ED Fig 3a) of 0.028, a Response (conc 111.111 uM, ED Fig 3a) of 0.056 and a Response (conc 333.333 uM, ED Fig 3a) of 0.051. It also gave a Response (conc 1000 uM, ED Fig 3a) of 0.086.

COc1ccc2c3c1O[C@H]1C(=O)CC[C@@]4(O)[C@@H](C2)N(C)CC[C@]314 [oxycodone] gave a Response (conc 0.0137 uM, ED Fig. 2c) of 0.109, a Response (conc 0.123 uM, ED Fig. 2c) of 0.086 and a Response (conc 0.37 uM, ED Fig. 2c) of 0.066. The Response (conc 10 uM, ED Fig. 2c) was 0.081, the Response (conc 30 uM, ED Fig. 2c) was 0.117 and the “activation of coca-5HT3” value [1] was “did not activate”.
